From patent US7179823B1, “5-membered n-heterocyclic compounds with hypoglycemic and hypolipidemic activity” (Takeda Pharmaceutical Company Limited, priority 1999, dated 2007)

Which melting point does the source give for O=C(O)CCc1cn(Cc2ccc(OCc3ccccc3)cc2)nc1-c1ccccc1 [Example 77, 3-[1-(4-benzyloxybenzyl)-3-phenyl-1H-pyrazol-4-yl]propionic acid] here?
The melting point was 147 to 148 °C.

For Cc1oc(-c2ccncc2)nc1COc1ccc(Cn2cc(CCC(=O)O)c(-c3ccccc3)n2)cc1 [Example 83, 3-[1-[4-[5-methyl-2-(4-pyridyl)-4-oxazolylmethoxy]benzyl]-3-phenyl-1H-pyrazol-4-yl]propionic acid], which melting point is on record?
The melting point was 154 to 155 °C.

With O=C(O)CCc1cn(Cc2ccc(OCc3noc(-c4ccccc4)n3)cc2)nc1-c1ccccc1 [Example 85, 3-[3-phenyl-1-[4-(5-phenyl-1,2,4-oxadiazole-3-ylmethoxy)benzyl]-1H-pyrazol-4-yl]propionic acid] as the compound, how does the melting point read?
The melting point was 166 to 167 °C.

With O=C(O)CCc1cn(Cc2ccc(OCc3cccnc3)cc2)nc1-c1ccccc1 [Example 91, 3-[3-phenyl-1-[4-(3-pyridylmethoxy)benzyl]-1H-pyrazol-4-yl]propionic acid] as the compound, how does the melting point read?
Its melting point is 112 to 113 °C.

Which melting point does the source give for O=C(O)c1cn(Cc2ccc(OCc3ccccc3)cc2)nc1-c1ccccc1 [Example 92, 1-(4-benzyloxybenzyl)-3-phenyl-1H-pyrazol-4-carboxylic acid] here?
The melting point was 152 to 153 °C.

Which melting point does the source give for Cc1oc(-c2ccccc2)nc1COc1ccc(Cn2cc(C(=O)O)c(-c3ccccc3)n2)cc1 [Example 93, 1-[4-(5-methyl-2 phenyl-4-oxazolylmethoxy)benzyl]-3-phenyl-1H-pyrazol-4-carboxylic acid] here?
The melting point was 165 to 166 °C.

For O=C(O)c1cn(Cc2ccc(OCc3csc(-c4ccccc4)n3)cc2)nc1-c1ccccc1 [Example 94, 3-phenyl-1-[4-(2-phenyl-4-thiazolylmethoxy)benzyl]-1H-pyrazol-4-carboxylic acid], which melting point is on record?
Its melting point is 119 to 120 °C.

With Cc1oc(-c2ccccc2)nc1COc1ccc(Cn2cc(CCCC(=O)O)c(-c3ccccc3)n2)cc1 [Example 96, 4-[1-[4-(5-methyl-2-phenyl-4-oxazolylmethoxy)benzyl]-3-phenyl-1H-pyrazole-4-yl]butanoic acid] as the compound, how does the melting point read?
Its melting point is 118 to 119 °C.

With Cc1oc(-c2ccccc2)nc1COc1ccc(Cn2cc(CCCCC(=O)O)c(-c3ccccc3)n2)cc1 [Example 97, 5-[1-[4-(5-methyl-2-phenyl-4-oxazolylmethoxy)benzyl]-3-phenyl-1H-pyrazol-4-yl]pentanoic acid] as the compound, how does the melting point read?
The melting point was 109 to 110 °C.

With Cc1oc(-c2ccccc2)nc1COc1ccc(Cn2cc(CCC(=O)O)c(-c3ccc(C(F)(F)F)cc3)n2)cc1 [Example 98, 3-[1-[4-(5-methyl-2-phenyl-4-oxazolylmethoxy)benzyl]-3-(4-trifluoromethylphenyl)-1H-pyrazol-4-yl]propionic acid] as the compound, how does the melting point read?
Its melting point is 149 to 150 °C.

For COc1ccc(-c2nn(Cc3ccc(OCc4nc(-c5ccccc5)oc4C)cc3)cc2CCC(=O)O)cc1 [Example 102, 3-[3-(4-methoxyphenyl)-1-[4-(5-methyl-2-phenyl-4-oxazolylmethoxy)benzyl]-1H-pyrazol-4-yl]propionic acid], which melting point is on record?
The melting point was 137 to 138 °C.

For Cc1oc(-c2ccco2)nc1COc1ccc(Cn2cc(CCC(=O)O)c(-c3ccc(C(F)(F)F)cc3)n2)cc1 [Example 103, 3-[1-[4-[2-(2-furyl)-5-methyl-4-oxazolylmethoxy)benzyl]-3-(4-trifluoromethylphenyl)-1H-pyrazol-4-yl]propionic acid], which melting point is on record?
Its melting point is 92 to 93 °C.

With Cc1oc(-c2ccco2)nc1COc1ccc(Cn2cc(CCC(=O)O)c(-c3ccc(F)cc3)n2)cc1 [Example 105, 3-[3-(4-fluorophenyl)-1-[4-[2-(2-furyl)-5-methyl-4-oxazolylmethoxy)benzyl]-1H-pyrazol-4-yl]propionic acid] as the compound, how does the melting point read?
The melting point was 125 to 126 °C.

Which melting point does the source give for Cc1oc(-c2ccccc2)nc1COc1ccc(Cn2cc(C(=O)O)c(C(C)C)n2)cc1 [Example 106, 3-isopropyl-1-[4-(5-methyl-2-phenyl-4-oxazolylmethoxy)benzyl]-1H-pyrazol-4-carboxylic acid] here?
The melting point was 194 to 195 °C.

Which melting point does the source give for Cc1oc(-c2ccccc2)nc1COc1ccc(Cn2cc(CCC(=O)O)c(C(C)C)n2)cc1 [Example 108, 3-[3-isopropyl-1-[4-(5-methyl-2-phenyl-4-oxazolylmethoxy)benzyl]-1H-pyrazol-4-yl]propionic acid] here?
Its melting point is 97 to 98 °C.

For CCCc1c(CCC(=O)O)cnn1Cc1ccc(OCc2nc(-c3ccccc3)oc2C)cc1 [Example 112, 3-[1-[4-(5-methyl-2-phenyl-4-oxazolylmethoxy)benzyl]-5-propyl-1H-pyrazol-4-yl]propionic acid], which melting point is on record?
Its melting point is 158 to 159 °C.

Which melting point does the source give for Cc1oc(-c2ccccc2)nc1CCOc1ccc(Cn2cc(CCC(=O)O)c(-c3ccccc3)n2)cc1 [Example 114, 3-[1-[4-[2-(5-methyl-2-phenyl-4-oxazolyl)ethoxy]benzyl]-3-phenyl-1H-pyrazol-4-yl]propionic acid] here?
Its melting point is 142 to 143 °C.

For Cc1oc(-c2ccccc2)nc1COc1ccc(CCn2cc(CCC(=O)O)c(-c3ccccc3)n2)cc1 [Example 116, 3-[1-[2-[4-(5-methyl-2-phenyl-4-oxazolylmethoxy)phenyl]ethyl]-3-phenyl-1H-pyrazol-4-yl]propionic acid], which melting point is on record?
The melting point was 85 to 86 °C.

Which melting point does the source give for Cc1oc(-c2ccccc2)nc1COc1ccc(Cn2cc(CCC(=O)O)cn2)cc1 [Example 142, 3-[1-[4-(5-methyl-2-phenyl-4-oxazolylmethoxy)benzyl]-1H-pyrazol-4-yl]propionic acid] here?
Its melting point is 124 to 125 °C.

Which melting point does the source give for CCOc1nn(Cc2ccc(OCc3ccc4ccccc4n3)cc2)cc1CCC(=O)O [Example 209, 3-[3-ethoxy-1-[4-(2-quinolylmethoxy)benzyl]-1H-pyrazol-4-yl]propionic acid] here?
The melting point was 140 to 141 °C.

Which melting point does the source give for CCOc1nn(Cc2ccnc(OCc3nc(-c4ccccc4)oc3C)c2)cc1CCC(=O)O [Example 211, 3-[3-ethoxy-1-[2-(5-methyl-2-phenyl-4-oxazolylmethoxy)-4-pyridylmethyl]-1H-pyrazol-4-yl]propionic acid] here?
The melting point was 114 to 115 °C.

Which melting point does the source give for CCOc1nn(Cc2cncc(OCc3nc(-c4ccccc4)oc3C)c2)cc1CCC(=O)O [Example 213, 3-[3-ethoxy-1-[5-(5-methyl-2-phenyl-4-oxazolylmethoxy)-3-pyridylmethyl]-1H-pyrazol-4-yl]propionic acid] here?
The melting point was 133 to 134 °C.

Which melting point does the source give for CCOC(=O)CCc1cn(Cc2ccc(OC)c(OCc3nc(-c4ccccc4)oc3C)c2)nc1OCC [Example 214, ethyl 3-[3-ethoxy-1-[4-methoxy-3-(5-methyl-2-phenyl-4-oxazolylmethoxy)benzyl]-1H-pyrazol-4-yl]propionate] here?
The melting point was 109 to 110 °C.

With CCOc1nn(Cc2ccc(OC)c(OCc3nc(-c4ccccc4)oc3C)c2)cc1CCC(=O)O [Example 215, 3-[3-ethoxy-1-[4-methoxy-3-(5-methyl-2-phenyl-4-oxazolylmethoxy)benzyl]-1H-pyrazol-4-yl]propionic acid] as the compound, how does the melting point read?
Its melting point is 136 to 137 °C.

For CCOc1cc(Cn2cc(CCC(=O)O)c(OCC)n2)ccc1OCc1nc(-c2ccccc2)oc1C [Example 217, 3-[3-ethoxy-1-[3-ethoxy-4-(5-methyl-2-phenyl-4-oxazolylmethoxy)benzyl]-1H-pyrazol-4-yl]propionic acid], which melting point is on record?
The melting point was 105 to 106 °C.

With CCOC(=O)CCc1cn(Cc2cc(OCc3nc(-c4ccccc4)oc3C)no2)nc1OCC [Example 218, ethyl 3-[3-ethoxy-1-[3-(5-methyl-2-phenyl-4-oxazolylmethoxy)-5-isoxazolylmethyl]-1H-pyrazol-4-yl]propionate] as the compound, how does the melting point read?
The melting point was 82 to 83 °C.

For CCOc1nn(Cc2cc(OCc3nc(-c4ccccc4)oc3C)no2)cc1CCC(=O)O [Example 219, 3-[3-ethoxy-1-[3-(5-methyl-2-phenyl-4-oxazolylmethoxy)-5-isoxazolylmethyl]-1H-pyrazol-4-yl]propionic acid], which melting point is on record?
Its melting point is 142 to 143 °C.

For CCOc1nn(Cc2ccc(OCCn3ncc4ccccc4c3=O)cc2)cc1CCC(=O)O [Example 220, 3-[3-ethoxy-1-[4-[2-[1-oxophthalazin-2(1H)-yl]ethoxy]benzyl]-1H-pyrazol-4-yl]propionic acid], which melting point is on record?
The melting point was 152 to 153 °C.

Which melting point does the source give for CCOc1nn(Cc2cccc(OCCn3ncc4ccccc4c3=O)c2)cc1CCC(=O)O [Example 221, 3-[3-ethoxy-1-[3-[2-[1-oxophthalazin-2(1H)-yl]ethoxy]benzyl]-1H-pyrazol-4-yl]propionic acid] here?
The melting point was 146 to 147 °C.

Which melting point does the source give for CCOc1nn(Cc2cccc(OCc3nc(-c4ccccc4)oc3C)n2)cc1CCC(=O)O [Example 223, 3-[3-ethoxy-1-[6-(5-methyl-2-phenyl-4-oxazolylmethoxy)-2-pyridylmethyl]-1H-pyrazol-4-yl]propionic acid] here?
Its melting point is 144 to 145 °C.

For CCOC(=O)CCc1cn(Cc2ccc(OCc3cn4c(Cl)cccc4n3)cc2)nc1OCC [Example 224, ethyl 3-[1-[4-(5-chloroimidazo[1,2-a]pyridin-2-ylmethoxy)benzyl]-3-ethoxy-1H-pyrazol-4-yl]propionate], which melting point is on record?
Its melting point is 69 to 70 °C.

For CCOc1nn(Cc2ccc(OCc3cn4c(Cl)cccc4n3)cc2)cc1CCC(=O)O [Example 225, 3-[1-[4-(5-chloroimidazo[1,2-a]pyridin-2-ylmethoxy)benzyl]-3-ethoxy-1H-pyrazol-4-yl]propionic acid], which melting point is on record?
The melting point was 153 to 154 °C.

For CCOc1nn(Cc2ccc(OCc3cn4c(OCC)cccc4n3)cc2)cc1CCC(=O)O [Example 227, 3-[3-ethoxy-1-[4-(5-ethoxyimidazo[1,2-a]pyridin-2-ylmethoxy)benzyl]-1H-pyrazol-4-yl]propionic acid], which melting point is on record?
Its melting point is 197 to 198 °C.

With CCOc1nn(Cc2ccc(OCn3nnc4ccccc43)cc2)cc1CCC(=O)O [Example 229, 3-[1-[4-(1H-benzotriazol-1-ylmethoxy)benzyl]-3-ethoxy-1H-pyrazol-4-yl]propionic acid] as the compound, how does the melting point read?
Its melting point is 136 to 137 °C.

For CCOc1nn(Cc2ccc(OCc3ccc(-c4ccccc4)nc3)cc2)cc1CCC(=O)O [Example 230, 3-[3-ethoxy-1-[4-(6-phenyl-3-pyridylmethoxy)benzyl]-1H-pyrazol-4-yl]propionic acid], which melting point is on record?
Its melting point is 140 to 141 °C.

With CCOC(=O)CCc1cn(Cc2ccc(OCc3cn4c(-c5ccccc5)cccc4n3)cc2)nc1OCC [Example 231, ethyl 3-[3-ethoxy-1-[4-(5-phenylimidazo[1,2-a]pyridin-2-ylmethoxy)benzyl]-1H-pyrazol-4-yl]propionate] as the compound, how does the melting point read?
Its melting point is 104 to 105 °C.
